Test results from patent publication US6630504B2, “Phenoxyphenylheterocyclyl derivatives as SSRIs” (Pfizer Inc., priority 2000, dated 2003).
Where “and” joins values, the source holds several entries; their conditions need not be identical. Identical values can stand only once. Counter-ions that a name gives are not always drawn.

These molecules were tested against T1, human serotonin transporter (hSERT) (Homo sapiens, UniProt P31645) (assay: inhibition of 3H-serotonin uptake in HEK-293 cells expressing hSERT). Conditions: HEK-293 cells with hSERT, 3H-5HT 50 nM, 5 min incubation; read-out: serotonin re-uptake inhibition (SRI) IC50.
T1 construct: expressed in transfected cells; host or cells: HEK-293 (stably transfected)
Type: cell-based
Method: A number of compounds were tested for biological activity by their ability to inhibit the uptake of serotonin by human serotonin transporters as follows.
Human embryonic kidney cells (HEK-293) stably transfected with either the human serotonin transporter (hSERT), noradrenaline transporter (hNET) or dopamine transporter (hDAT) were cultured under standard cell culture techniques (cells were grown at 37° C. and 5% CO2 in DMEM-culture media (supplemented with 10% dialysed foetal calf serum (FCS), 2 mM I-glutamine and 250 μg/ml geneticin)). Cells were harvested for the assay to yield a cell suspension of 750,000 cells/ml.
All test compounds were dissolved in 100% DMSO and diluted down in assay buffer to give appropriate test concentrations. Assays were carried out in 96-well filter bottom plates. Cells (7500 cells/assay well) were pre-incubated in standard assay buffer containing either test compound, standard inhibitor or compound vehicle (1% DMSO) for 5 minutes. Reactions were started by addition of either ^3H-Serotonin, ^3H-Noradrenaline or ^3H-Dopamine substrates. All reactions were carried out at room temperature in a shaking incubator. Incubation times were 5 minutes for the hSERT and hDAT assays and 15 minutes for the hNET assay. Reactions were terminated by removal of the reaction mixture using a vacuum manifold followed by rapid washing with ice cold assay buffer. The quantity of ^3H-substrate incorporated into the cells was then quantified.
Assay plates were dried in a microwave oven, scintillation fluid added, and radioactivity measured. Potency of test compounds was quantified as IC50 values (concentration of test compound required to inhibit the specific uptake of radiolabelled substrate into the cells by 50%).

T1 sequence (P31645 whole entry): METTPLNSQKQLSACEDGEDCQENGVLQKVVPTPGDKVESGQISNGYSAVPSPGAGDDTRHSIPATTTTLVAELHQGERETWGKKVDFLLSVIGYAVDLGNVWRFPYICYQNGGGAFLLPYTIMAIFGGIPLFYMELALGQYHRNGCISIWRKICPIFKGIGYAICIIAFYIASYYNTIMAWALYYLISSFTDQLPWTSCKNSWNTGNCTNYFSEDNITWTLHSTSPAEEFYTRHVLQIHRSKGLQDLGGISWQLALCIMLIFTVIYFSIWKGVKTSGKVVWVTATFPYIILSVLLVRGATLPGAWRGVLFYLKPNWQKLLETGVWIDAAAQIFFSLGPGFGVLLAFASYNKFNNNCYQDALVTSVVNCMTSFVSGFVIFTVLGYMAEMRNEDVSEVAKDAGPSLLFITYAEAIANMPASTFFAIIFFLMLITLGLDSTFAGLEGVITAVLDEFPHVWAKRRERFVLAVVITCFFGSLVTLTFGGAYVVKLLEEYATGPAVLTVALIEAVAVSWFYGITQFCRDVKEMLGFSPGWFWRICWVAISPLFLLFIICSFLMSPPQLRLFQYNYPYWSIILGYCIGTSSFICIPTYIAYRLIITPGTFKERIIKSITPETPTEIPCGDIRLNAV

Row | SMILES | IC50
1 | CSc1ccc(Oc2ccc(S(N)(=O)=O)cc2C2CCCN2)cc1 (single isomer, unassigned; (+)) [Example 7, (+)4-[4-(Methylsulfanyl)phenoxy]-3-(2-pyrrolidinyl)benzenesulfonamide hydrochloride] | ≤ 100 nM and ≤ 50 nM and 5.4 nM
2 | CS(=O)(=O)Nc1ccc(Oc2ccc(OC(F)(F)F)cc2)c(C2CCCN2)c1 (single isomer, unassigned) [Example 21] | 13 nM
3 | CNS(=O)(=O)c1ccc(Oc2ccc(SC)cc2)c(C2CCCN2)c1 (single isomer, unassigned) [Example 11, N-methyl-4-[4-(methylsulfanyl)phenoxy]-3-(2-pyrrolidinyl)benzenesulfonamide] | ≤ 100 nM and ≤ 50 nM and 5.9 nM
4 | CS(=O)(=O)Nc1ccc(Oc2ccc(OC(F)(F)F)cc2)c(C2CCCN2)c1 (single isomer, unassigned; (+)) [Example 22, (+) N-{3-(2-pyrrolidinyl)-4-[4-(trifluoromethoxy)phenoxy]phenyl}-methanesulfonamide] | ≤ 50 nM
